From ChEMBL document CHEMBL5678818, “Discovery of potent SOS1 inhibitors that block RAS activation via disruption of the RAS-SOS1 interaction” (Proc Natl Acad Sci U S A, 2019)

How the values were obtained:
[1] = target: RAC-gamma serine/threonine-protein kinase (Homo sapiens) (UniProt Q9Y243); assay: Inhibition of AKT3 (unknown origin) assessed as residual activity at 1000 nM by KINOMEscan analysis relative to control
[2] = target: T1, Homeodomain-interacting protein kinase 4 (Homo sapiens) (UniProt Q8NE63); assay: Inhibition of HIPK4 (unknown origin) assessed as residual activity at 1000 nM by KINOMEscan analysis relative to control
T1 sequence (whole entry): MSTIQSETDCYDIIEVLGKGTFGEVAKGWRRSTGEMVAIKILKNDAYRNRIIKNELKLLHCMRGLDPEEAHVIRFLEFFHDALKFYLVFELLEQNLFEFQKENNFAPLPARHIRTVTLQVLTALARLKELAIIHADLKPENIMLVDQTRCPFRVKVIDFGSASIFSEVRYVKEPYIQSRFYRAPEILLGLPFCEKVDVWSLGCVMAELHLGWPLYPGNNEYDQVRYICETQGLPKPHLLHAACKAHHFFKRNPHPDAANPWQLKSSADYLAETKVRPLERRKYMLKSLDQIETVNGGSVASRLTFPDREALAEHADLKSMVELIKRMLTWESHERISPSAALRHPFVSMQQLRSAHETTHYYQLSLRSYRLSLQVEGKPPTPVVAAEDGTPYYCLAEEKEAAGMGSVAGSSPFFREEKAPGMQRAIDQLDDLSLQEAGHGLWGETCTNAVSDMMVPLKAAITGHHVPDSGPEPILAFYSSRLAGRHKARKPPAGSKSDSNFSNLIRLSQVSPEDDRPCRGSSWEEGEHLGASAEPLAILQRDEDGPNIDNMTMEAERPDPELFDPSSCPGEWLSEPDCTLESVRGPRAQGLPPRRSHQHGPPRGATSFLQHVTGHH

[3] = target: Transient receptor potential cation channel subfamily M member 6 (Homo sapiens) (UniProt Q9BX84); assay: Inhibition of TRPM6 (unknown origin) assessed as residual activity at 1000 nM by KINOMEscan analysis relative to control
Transient receptor potential cation channel subfamily M member 6 (Homo sapiens), sequence (Q9BX84 whole entry): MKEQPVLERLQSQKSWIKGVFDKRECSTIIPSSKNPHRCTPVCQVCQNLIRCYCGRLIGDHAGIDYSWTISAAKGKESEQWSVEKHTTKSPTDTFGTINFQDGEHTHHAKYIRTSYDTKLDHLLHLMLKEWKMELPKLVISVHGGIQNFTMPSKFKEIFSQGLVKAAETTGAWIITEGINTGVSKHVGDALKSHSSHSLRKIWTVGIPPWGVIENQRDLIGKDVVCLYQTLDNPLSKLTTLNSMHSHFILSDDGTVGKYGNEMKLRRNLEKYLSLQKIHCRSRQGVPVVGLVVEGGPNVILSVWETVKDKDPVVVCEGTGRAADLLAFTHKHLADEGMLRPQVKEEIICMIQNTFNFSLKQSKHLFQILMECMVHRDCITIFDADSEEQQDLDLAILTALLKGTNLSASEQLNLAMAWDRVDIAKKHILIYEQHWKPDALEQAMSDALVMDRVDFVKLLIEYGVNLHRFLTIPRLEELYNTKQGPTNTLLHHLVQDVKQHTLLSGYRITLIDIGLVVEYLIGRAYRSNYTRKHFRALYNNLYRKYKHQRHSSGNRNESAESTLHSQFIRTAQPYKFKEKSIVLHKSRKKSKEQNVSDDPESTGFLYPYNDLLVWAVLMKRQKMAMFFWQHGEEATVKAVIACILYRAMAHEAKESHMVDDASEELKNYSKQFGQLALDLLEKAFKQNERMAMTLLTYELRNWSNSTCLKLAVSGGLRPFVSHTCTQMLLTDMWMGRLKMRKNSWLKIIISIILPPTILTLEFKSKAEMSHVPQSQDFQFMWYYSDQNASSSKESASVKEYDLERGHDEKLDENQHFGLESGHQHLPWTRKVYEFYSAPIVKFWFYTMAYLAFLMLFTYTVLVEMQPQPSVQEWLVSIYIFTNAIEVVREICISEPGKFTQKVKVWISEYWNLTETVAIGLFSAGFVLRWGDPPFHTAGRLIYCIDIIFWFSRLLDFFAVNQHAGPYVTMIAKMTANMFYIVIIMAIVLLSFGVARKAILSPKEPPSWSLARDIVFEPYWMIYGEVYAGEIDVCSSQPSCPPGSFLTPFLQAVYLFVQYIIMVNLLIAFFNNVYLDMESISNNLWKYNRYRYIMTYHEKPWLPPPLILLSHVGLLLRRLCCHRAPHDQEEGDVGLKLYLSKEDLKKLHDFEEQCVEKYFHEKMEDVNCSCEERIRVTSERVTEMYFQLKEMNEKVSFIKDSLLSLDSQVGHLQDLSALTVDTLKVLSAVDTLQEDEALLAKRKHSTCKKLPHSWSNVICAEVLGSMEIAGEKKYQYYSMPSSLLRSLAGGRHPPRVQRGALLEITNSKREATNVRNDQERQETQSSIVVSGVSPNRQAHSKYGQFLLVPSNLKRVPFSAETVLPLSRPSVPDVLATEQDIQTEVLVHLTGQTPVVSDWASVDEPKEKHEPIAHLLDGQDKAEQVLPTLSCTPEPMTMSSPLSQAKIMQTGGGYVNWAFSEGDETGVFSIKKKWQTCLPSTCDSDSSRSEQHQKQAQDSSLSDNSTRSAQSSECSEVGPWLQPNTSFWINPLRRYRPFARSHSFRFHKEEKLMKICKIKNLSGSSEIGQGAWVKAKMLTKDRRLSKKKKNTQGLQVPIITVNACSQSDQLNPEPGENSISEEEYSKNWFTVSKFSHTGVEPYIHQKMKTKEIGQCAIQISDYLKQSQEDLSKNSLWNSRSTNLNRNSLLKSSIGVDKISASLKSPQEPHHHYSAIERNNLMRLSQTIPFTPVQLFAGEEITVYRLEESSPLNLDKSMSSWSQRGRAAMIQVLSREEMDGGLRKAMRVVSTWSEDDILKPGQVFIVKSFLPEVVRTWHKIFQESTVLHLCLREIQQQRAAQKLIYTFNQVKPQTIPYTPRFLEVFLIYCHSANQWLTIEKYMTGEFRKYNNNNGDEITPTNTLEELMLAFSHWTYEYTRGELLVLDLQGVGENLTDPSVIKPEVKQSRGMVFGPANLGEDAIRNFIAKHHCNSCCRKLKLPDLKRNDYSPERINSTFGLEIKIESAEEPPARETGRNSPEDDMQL

[4] = target: T2, Phosphatidylinositol 5-phosphate 4-kinase type-2 beta (Homo sapiens) (UniProt P78356); assay: Inhibition of PIP5K2B (unknown origin) assessed as residual activity at 1000 nM by KINOMEscan analysis relative to control
T2 sequence (whole entry): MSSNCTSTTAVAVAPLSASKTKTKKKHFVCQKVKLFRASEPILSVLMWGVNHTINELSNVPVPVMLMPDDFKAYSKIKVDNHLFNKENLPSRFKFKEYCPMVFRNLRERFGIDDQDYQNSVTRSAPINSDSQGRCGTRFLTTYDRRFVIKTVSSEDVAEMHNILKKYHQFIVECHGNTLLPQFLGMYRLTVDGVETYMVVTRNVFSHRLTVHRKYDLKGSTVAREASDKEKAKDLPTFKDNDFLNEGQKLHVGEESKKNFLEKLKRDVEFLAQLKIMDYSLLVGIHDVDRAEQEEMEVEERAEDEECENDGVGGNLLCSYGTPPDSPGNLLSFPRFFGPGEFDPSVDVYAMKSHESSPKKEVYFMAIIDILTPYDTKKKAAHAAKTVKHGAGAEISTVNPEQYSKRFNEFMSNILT

[5] = target: T3, Myotonin-protein kinase (Homo sapiens) (UniProt Q09013); assay: Inhibition of DMPK (unknown origin) assessed as residual activity at 1000 nM by KINOMEscan analysis relative to control
T3 sequence (whole entry): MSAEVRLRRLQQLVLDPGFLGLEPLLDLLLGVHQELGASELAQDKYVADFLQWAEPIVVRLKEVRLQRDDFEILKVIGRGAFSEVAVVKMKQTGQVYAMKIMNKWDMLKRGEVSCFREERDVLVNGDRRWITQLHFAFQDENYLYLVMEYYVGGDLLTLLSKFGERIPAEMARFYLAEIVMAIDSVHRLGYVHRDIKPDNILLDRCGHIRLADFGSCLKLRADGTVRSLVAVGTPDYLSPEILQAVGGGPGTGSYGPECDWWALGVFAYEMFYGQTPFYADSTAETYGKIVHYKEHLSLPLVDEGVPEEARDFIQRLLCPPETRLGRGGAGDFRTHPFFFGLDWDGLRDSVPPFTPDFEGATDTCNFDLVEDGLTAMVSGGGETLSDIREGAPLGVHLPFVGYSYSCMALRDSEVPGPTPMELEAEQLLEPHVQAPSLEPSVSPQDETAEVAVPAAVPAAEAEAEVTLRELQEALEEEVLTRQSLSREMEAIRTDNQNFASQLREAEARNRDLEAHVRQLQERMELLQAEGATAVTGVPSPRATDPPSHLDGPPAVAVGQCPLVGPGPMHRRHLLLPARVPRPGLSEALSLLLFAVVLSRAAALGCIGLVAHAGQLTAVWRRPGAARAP

[6] = target: T4, Tyrosine-protein kinase TXK (Homo sapiens) (UniProt P42681); assay: Inhibition of TXK (unknown origin) assessed as residual activity at 1000 nM by KINOMEscan analysis relative to control
T4 sequence (whole entry): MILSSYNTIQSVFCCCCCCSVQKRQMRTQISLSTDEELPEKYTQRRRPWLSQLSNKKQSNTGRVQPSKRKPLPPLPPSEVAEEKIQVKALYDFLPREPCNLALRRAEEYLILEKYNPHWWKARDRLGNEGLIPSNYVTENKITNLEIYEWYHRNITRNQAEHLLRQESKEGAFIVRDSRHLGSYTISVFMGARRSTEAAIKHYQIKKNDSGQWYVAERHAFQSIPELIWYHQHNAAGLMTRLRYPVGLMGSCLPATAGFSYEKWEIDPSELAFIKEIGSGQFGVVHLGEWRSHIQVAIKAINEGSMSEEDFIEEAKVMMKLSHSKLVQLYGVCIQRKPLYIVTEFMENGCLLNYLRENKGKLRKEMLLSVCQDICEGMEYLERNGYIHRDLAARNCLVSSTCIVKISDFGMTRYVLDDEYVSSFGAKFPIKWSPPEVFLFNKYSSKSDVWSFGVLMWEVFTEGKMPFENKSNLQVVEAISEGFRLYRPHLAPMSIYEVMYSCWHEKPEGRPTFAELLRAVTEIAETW

[7] = test system: Tyrosine-protein kinase ABL1 (Homo sapiens), P00519 [F317L]; assay: Inhibition of phosphorylated ABL1 F317L mutant (unknown origin) assessed as residual activity at 1000 nM by KINOMEscan analysis relative to control
Tyrosine-protein kinase ABL1 (Homo sapiens), P00519 [F317L], sequence (P00519 whole entry F317L): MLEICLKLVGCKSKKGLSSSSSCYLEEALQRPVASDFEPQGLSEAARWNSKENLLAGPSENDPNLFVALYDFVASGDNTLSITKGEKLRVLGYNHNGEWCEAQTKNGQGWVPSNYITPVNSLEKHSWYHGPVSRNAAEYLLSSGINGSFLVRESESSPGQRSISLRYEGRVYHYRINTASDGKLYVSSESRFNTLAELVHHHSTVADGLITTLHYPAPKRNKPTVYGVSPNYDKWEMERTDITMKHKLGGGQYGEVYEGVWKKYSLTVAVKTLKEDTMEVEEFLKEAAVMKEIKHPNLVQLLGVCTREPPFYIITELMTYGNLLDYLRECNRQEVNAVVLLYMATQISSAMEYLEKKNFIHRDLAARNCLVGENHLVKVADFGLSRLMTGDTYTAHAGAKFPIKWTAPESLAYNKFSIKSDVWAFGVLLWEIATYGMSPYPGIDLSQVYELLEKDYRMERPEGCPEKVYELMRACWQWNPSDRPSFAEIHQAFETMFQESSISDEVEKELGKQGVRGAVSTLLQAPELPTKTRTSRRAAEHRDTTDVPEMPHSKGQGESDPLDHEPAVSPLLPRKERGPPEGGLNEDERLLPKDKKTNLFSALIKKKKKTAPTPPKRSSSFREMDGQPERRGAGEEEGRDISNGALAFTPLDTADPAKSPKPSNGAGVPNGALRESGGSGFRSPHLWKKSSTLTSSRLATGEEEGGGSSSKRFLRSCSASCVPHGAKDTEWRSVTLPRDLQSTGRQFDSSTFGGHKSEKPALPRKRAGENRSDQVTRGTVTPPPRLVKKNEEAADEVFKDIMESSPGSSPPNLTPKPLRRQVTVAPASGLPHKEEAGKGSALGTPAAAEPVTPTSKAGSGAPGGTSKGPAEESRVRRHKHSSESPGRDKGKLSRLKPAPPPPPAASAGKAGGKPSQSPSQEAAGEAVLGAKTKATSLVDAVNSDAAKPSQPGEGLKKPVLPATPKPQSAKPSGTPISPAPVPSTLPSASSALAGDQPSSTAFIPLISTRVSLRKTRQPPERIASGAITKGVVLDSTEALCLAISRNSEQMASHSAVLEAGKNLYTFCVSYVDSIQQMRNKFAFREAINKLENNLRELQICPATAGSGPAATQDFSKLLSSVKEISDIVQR

[8] = target: SRSF protein kinase 2 (Homo sapiens) (UniProt P78362); assay: Inhibition of SRPK2 (unknown origin) assessed as residual activity at 1000 nM by KINOMEscan analysis relative to control
SRSF protein kinase 2 (Homo sapiens), sequence (P78362 whole entry, looked up): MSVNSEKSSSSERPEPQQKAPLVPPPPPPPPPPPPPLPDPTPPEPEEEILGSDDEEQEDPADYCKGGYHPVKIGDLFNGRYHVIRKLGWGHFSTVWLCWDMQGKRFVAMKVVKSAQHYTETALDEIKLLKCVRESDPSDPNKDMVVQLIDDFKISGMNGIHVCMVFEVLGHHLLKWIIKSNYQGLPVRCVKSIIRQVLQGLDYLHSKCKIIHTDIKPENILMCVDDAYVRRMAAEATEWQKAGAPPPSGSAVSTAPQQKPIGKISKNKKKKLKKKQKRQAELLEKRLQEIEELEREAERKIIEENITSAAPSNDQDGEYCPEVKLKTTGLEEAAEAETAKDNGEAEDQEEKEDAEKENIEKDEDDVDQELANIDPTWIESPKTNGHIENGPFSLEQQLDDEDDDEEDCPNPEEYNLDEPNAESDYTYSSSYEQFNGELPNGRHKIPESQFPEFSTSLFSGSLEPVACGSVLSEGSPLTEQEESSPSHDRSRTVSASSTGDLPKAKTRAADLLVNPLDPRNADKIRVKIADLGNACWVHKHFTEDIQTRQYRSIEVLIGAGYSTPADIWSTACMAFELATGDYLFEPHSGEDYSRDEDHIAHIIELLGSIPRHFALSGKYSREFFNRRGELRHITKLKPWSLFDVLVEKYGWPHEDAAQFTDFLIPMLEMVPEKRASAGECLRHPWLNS

[9] = target: Fibroblast growth factor receptor 1 (Homo sapiens) (UniProt P11362); assay: Inhibition of FGFR1 (unknown origin) assessed as residual activity at 1000 nM by KINOMEscan analysis relative to control
Fibroblast growth factor receptor 1 (Homo sapiens), sequence (P11362 22-822 limits assumed): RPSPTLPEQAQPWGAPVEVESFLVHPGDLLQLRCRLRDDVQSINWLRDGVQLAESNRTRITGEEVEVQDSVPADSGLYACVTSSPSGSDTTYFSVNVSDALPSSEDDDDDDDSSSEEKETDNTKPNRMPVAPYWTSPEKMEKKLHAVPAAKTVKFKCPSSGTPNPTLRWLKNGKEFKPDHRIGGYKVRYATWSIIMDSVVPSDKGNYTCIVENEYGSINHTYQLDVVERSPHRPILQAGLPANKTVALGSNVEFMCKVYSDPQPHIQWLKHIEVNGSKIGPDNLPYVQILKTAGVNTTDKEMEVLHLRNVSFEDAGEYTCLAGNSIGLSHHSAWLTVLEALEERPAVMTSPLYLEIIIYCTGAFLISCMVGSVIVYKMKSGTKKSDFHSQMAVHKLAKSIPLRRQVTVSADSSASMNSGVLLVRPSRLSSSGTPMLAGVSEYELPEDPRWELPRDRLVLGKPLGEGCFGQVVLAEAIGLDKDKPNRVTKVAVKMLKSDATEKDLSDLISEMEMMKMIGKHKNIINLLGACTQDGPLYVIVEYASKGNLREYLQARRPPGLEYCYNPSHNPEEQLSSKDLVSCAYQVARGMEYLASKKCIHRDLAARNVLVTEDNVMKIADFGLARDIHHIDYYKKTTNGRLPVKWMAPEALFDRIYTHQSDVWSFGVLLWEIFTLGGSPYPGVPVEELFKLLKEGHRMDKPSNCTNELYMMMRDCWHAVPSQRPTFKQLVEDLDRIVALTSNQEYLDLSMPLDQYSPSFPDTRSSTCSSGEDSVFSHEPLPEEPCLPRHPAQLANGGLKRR

RAC-gamma serine/threonine-protein kinase (Homo sapiens), sequence (Q9Y243 whole entry): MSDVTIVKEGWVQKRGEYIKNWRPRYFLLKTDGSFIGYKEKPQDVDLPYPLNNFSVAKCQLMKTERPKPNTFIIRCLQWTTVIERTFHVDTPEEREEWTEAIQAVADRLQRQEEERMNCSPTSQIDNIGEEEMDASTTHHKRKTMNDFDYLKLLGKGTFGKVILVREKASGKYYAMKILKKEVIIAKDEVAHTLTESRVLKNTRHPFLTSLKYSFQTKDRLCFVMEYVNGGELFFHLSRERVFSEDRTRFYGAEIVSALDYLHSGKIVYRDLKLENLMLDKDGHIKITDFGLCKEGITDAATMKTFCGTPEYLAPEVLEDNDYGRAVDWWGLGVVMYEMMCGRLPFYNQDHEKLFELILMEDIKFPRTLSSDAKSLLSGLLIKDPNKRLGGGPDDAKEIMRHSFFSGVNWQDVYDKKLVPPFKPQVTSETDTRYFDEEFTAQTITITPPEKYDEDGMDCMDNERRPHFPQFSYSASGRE

Structure (SMILES)	Activity [1]	Activity [2]	Activity [3]	Activity [4]	Activity [5]	Activity [6]	Activity [7]	Activity [8]	Activity [9]
COc1cc2ncnc(N[C@H](C)c3cccc4ccccc34)c2cc1OC	100%	100%	100%	100%	100%	100%	89%	93%	80%
COc1cc2nc(C)nc(N[C@H](C)c3cccc(-c4cn[nH]c4)c3)c2cc1OC	84%	80%	84%	89%	87%	83%	92%	94%	65%
